The target in one data set is T1, α4β7 (Homo sapiens, UniProt P13612+P26010).
T1 construct: endogenous in cells; host or cells: JY cells
T1 sequence (P13612 34-1032): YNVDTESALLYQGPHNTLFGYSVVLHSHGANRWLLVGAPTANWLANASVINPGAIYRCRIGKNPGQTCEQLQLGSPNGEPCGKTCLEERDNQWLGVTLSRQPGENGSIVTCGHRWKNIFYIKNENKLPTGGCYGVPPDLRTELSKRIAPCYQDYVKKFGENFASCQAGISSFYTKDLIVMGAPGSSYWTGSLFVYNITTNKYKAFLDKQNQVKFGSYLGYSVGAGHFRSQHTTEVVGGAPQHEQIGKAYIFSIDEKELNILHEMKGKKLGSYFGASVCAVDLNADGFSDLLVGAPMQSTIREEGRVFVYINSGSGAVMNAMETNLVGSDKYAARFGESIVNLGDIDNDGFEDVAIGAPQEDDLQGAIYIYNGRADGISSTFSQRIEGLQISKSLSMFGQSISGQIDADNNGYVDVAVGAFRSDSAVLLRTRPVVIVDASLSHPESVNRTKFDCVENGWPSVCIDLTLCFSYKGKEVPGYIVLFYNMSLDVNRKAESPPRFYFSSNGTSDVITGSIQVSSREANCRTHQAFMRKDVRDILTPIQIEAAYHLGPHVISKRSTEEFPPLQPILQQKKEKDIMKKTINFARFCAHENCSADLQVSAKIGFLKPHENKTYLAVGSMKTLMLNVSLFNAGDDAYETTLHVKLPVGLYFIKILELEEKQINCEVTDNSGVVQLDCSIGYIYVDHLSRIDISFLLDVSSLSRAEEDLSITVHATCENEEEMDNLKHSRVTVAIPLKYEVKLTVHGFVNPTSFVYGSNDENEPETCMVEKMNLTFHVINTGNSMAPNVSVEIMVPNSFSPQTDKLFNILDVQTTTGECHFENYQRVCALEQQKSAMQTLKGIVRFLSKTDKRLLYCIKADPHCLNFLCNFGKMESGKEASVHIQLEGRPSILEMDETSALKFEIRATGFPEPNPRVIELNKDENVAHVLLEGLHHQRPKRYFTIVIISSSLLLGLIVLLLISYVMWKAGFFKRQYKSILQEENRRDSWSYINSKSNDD
T1 sequence (P26010 20-798): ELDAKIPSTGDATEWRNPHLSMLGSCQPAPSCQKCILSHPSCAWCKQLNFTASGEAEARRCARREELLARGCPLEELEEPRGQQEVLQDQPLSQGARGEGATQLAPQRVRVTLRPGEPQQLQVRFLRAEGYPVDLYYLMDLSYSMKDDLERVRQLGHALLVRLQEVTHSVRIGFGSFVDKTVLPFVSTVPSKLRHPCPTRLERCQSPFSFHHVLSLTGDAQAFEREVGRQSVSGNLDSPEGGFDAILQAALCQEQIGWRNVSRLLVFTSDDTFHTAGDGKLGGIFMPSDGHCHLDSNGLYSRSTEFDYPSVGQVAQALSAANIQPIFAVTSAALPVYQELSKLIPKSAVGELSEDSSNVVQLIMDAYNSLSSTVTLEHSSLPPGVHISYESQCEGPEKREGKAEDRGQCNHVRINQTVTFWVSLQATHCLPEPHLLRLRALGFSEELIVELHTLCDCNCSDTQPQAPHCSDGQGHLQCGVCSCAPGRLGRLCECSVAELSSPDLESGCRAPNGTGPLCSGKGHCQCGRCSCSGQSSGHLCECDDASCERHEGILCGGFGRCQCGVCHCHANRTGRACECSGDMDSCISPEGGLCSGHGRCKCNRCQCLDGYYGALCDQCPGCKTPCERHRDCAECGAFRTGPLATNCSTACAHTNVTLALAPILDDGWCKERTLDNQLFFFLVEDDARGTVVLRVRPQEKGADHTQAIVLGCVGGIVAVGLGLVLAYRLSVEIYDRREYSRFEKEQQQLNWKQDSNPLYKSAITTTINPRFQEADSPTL
The data set is described as follows: VCAM-Ig Direct Binding Assay on JY cells (α4β7). On the procedure:
In order to assess the VLA-4 inhibitory specificity of the compounds of this invention, assays for other major groups of integrins, i.e., β2and β3, as well as other β1 integrins, such as VLA-5, VLA-6 and α4β7 are performed. These assays may be similar to the adhesion inhibition and direct binding assays described above, substituting the appropriate integrin-expressing cell and corresponding ligand. For example, polymorphonuclear cells (PMNs) express β2 integrins on their surface and bind to ICAM. β3 integrins are involved in platelet aggregation and inhibition may be measured in a standard platelet aggregation assay. VLA-5 binds specifically to Arg-Gly-Asp sequences, while VLA-6 binds to laminin. α4β7 is a recently discovered homologue of VLA-4, which also binds fibronectin and VCAM. Specificity with respect to α4β7 is determined in a binding assay that utilizes the above-described VCAM-IgG-enzyme marker conjugate and a cell line that expresses α4β7, but not VLA-4, such as RPMI-8866 or JY cells.
Binding to α4β7 was assessed on JY cells in the presence of Mn^+2. In the binding assay, VCAM-Ig and oMePUPA-V compete for binding to α4β7 on JY cells (See section 4.1.1 for assay protocol). In the cell adhesion assay, oMePUPA-V was tested for its ability to block JY (α4β7) cell binding to CS1/BSA conjugate

A short description of the next data set: Crystallinity. The data set is classed as physicochemical.
In another data set the target is T2, α4β1 (Homo sapiens, UniProt P05556+P13612).
T2 construct: endogenous in cells; host or cells: Jurkat (human T cell line)
T2 sequence (P05556 21-798, one chain of several): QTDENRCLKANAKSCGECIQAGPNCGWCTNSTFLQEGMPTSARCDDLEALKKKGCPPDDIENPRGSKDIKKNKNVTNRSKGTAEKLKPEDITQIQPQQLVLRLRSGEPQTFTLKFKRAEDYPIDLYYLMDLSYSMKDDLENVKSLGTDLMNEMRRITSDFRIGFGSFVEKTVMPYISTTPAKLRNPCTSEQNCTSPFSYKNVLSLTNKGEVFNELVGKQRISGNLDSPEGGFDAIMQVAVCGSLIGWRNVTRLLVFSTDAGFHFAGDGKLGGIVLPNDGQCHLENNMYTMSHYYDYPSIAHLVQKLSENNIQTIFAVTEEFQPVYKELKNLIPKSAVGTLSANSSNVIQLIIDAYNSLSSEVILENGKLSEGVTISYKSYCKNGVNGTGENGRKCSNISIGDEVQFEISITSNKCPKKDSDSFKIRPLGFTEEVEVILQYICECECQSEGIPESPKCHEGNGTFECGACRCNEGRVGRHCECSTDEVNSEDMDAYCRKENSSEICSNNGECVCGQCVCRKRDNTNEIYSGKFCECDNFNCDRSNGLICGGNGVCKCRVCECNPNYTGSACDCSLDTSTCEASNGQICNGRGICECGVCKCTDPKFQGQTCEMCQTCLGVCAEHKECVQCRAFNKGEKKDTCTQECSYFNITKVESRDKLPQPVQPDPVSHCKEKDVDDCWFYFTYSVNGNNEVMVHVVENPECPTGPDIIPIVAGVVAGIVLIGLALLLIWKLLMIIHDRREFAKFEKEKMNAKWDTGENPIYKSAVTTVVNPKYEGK
In words: LIBS induction on Jurkat cells with antibody 9EG7 (FACS). Type of data set: cell-based. As to conditions: 2 mM Mg+2 buffer, read-out: EC50 of LIBS epitope induction. On the procedure:
Jurkat cells (2×10^5/well) were preincubated at 37° C. for 20 minutes with TRIS-buffered saline containing 2 mM MgCl2 (Mg^+2-TBS) alone or with serial dilutions of test compounds. The samples were transferred to an ice bath and supplemented with LIBS antibody, 9EG7, at a final concentration of 10 μg/ml. The cells were washed twice with Mg^+2-TBS and resuspended in a 1:200 dilution of a FITC conjugated-goat anti-rat IgG in Mg^+2-TBS and incubated for 30 min at 4° C. The cells were washed twice and resuspended in Mg^+2-TBS. Mean fluorescence intensity (MFI) was determined by FACS analysis (Becton Dickinson FACScan). Results are expressed as MFI. Data were analyzed by Microsoft Excel v5.0 and Deltagraph v4.0 software.

What is called inhibition is the share of the control response that was lost under treatment. As usually defined, the IC50 is the concentration needed to halve the response being measured. A word on the EC50: it is the concentration at which the effect is half-maximal.

In the case of `Cc1ccccc1NC(=O)Nc1ccc(CC(=O)N2CCC[C@H]2C(=O)N[C@H](C)CC(=O)O)cc1` [oMePUPA-V], the “measurable activity against α4β7” value on α4β7 is over 100 µM. The inhibition at 100 µM at α4β7 (@ 100 μM, Mn+2, read-out: inhibition, JY (α4β7) VCAM-Ig DBA) was determined as 3%. The “blocking of α4β7 binding to VCAM-Ig (in words)” value at α4β7 (JY cells, Mn+2) was “does not block”. Besides, the IC50 at α4β7 (read-out: IC50 against α4β7-VCAM-Ig binding) was over 100000 nM. Moreover, the Crystallinity entry in “Crystallinity” was “YES”. The EC50 on α4β1 is about 20 nM.

Source of the values: US6495525B1, “VLA-4 inhibitor: oMePUPA-V” (Biogen, Inc., priority 1998, dated 2002).
